Counter-ions that a name gives are not always drawn.
Tests used:
Details in all cases: activity in wells, twofold serial dilution assay; higher well number indicates higher activity
[1] = system: late components of human complement (C3-C9); experiment: Test Code 035 (C3-C9 inhibitor), lysis of EAC 142; assay type: biochemical
From the text: (§1) An active inhibitor protects C2 from C1 and C4; (ii) Test Code 035 (C3-C9 inhibitor)--This test determines the ability of the late components of human complement (C3-C9) to lyse EAC 142 in the presence of appropriate dilutions of the test compound. An active inhibitor protects EAC 142 from lysis by human C3-C9; (iii) Test Code 036 (C-Shunt inhibitor)--In this test human erythrocytes rendered fragile are lysed in autologous serum via the shunt pathway activated by cobra venom factor in the presence of appropriate dilutions of the test compound. Inhibition of the shunt pathway results in failure of lysis; (iv) Forssman Vasculitis Test--Here, the well known complement dependent lesion, Forssman vasculitis, is produced in guinea pigs by intradermal injection of rabbit anti-Forssman antiserum. […]

[2] = system: activated human C1; experiment: Test Code 026 (C1 inhibitor); assay type: biochemical
From the text: as §1

[3] = system: shunt pathway; experiment: Test Code 036 (C-Shunt inhibitor), lysis of fragile human erythrocytes in autologous serum, cobra venom factor activated; assay type: cell-based
From the text: as §1

| Structure (SMILES) | C-Late 035 Wells [1] [Wells] | C1 026 Wells [2] [Wells] | Shunt Inhibition 036 Wells [3] [Wells] |
| --- | --- | --- | --- |
| O=C(O)[C@H](OS(=O)(=O)O)[C@@H](OS(=O)(=O)O)[C@H](O[C@@H]1O[C@H](COS(=O)(=O)O)[C@H](OS(=O)(=O)O)[C@H](OS(=O)(=O)O)[C@H]1OS(=O)(=O)O)[C@@H](COS(=O)(=O)O)OS(=O)(=O)O [Lactobionic acid, octakis (H-sulfate) nonasodium salt] [Lactobionic acid, octakis (H-sulfate), nonasodium salt] | 2 | 8 | 5 |
| O=C(O)[C@H](OS(=O)(=O)O)[C@@H](OS(=O)(=O)O)[C@H](O[C@@H]1O[C@H](COS(=O)(=O)O)[C@H](OS(=O)(=O)O)[C@H](OS(=O)(=O)O)[C@H]1OS(=O)(=O)O)[C@@H](COS(=O)(=O)O)OS(=O)(=O)O [Lactobionic acid, octakis (H-sulfate), nonatrimethylamine sa] [Lactobionic acid, octakis (H-sulfate), nonatrimethylamine salt] | 2 | 8 | 4 |

— patent US4258034A, “Lactobionic acid poly(H-sulfate) and salts thereof useful as complement inhibitors” (American Cyanamid Company, priority 1979, dated 1981)
